Experimental data reported in ChEMBL document CHEMBL1121635 (J Med Chem, 1980).

Key:
[1] = biological target: T1, Adrenergic receptor alpha-1 (Rattus norvegicus, UniProt P15823+P23944+P43140)
T1 sequence (P15823 whole entry): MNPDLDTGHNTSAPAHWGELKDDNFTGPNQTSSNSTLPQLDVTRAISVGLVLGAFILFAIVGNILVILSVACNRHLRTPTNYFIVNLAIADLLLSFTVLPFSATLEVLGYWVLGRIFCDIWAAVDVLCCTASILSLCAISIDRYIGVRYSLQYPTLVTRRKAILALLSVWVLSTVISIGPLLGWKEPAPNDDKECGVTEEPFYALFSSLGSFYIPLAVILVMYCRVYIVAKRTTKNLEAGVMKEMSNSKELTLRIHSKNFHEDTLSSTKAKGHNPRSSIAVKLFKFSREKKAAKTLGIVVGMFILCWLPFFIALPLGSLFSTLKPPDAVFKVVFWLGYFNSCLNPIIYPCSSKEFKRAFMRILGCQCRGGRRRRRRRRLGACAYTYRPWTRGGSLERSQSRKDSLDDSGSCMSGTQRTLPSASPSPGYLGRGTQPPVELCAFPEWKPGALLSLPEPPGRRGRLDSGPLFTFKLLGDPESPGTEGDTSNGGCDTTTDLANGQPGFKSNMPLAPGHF
T1 sequence (P23944 whole entry): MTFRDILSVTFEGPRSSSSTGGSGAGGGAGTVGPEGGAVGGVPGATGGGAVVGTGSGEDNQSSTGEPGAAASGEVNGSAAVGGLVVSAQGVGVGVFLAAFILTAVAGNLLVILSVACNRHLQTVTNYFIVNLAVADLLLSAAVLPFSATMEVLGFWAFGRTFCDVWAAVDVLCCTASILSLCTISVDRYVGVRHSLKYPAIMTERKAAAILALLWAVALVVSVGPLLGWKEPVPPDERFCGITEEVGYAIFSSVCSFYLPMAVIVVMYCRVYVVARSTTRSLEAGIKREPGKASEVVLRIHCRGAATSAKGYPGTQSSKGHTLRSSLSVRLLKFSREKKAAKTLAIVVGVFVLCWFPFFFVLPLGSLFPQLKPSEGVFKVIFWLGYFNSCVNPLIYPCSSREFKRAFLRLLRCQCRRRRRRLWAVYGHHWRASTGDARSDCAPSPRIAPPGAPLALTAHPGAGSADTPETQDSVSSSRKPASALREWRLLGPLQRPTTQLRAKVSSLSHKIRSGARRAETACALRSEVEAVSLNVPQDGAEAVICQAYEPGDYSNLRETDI
T1 sequence (P43140 whole entry): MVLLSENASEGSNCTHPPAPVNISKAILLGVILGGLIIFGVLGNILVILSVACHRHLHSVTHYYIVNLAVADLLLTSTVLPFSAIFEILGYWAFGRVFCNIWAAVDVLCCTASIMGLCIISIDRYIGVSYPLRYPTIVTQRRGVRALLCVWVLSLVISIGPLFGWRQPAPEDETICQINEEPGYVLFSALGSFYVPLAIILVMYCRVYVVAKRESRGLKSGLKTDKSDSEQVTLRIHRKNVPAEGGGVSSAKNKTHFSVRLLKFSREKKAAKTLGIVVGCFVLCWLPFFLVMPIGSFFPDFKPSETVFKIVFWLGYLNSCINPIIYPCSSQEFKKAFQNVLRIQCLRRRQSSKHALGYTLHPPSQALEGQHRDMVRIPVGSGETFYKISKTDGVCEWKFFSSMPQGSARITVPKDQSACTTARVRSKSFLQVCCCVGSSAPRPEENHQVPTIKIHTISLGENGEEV
Description: Concentration of compound for 50% displacement of [3H]WB-4101 from Alpha-1 adrenergic receptor of rat brain

[2] = biological target: Muscarinic acetylcholine receptor
Description: Concentration of compound for 50% displacement of [3H]QNB from Muscarinic acetylcholine receptor in rat brain

[3] = species: Rattus norvegicus
Description: (§1) Concentration of compound to inhibit 50% of [3H]norepinephrine neurotransmitter uptake in rat brain

[4] = species: Rattus norvegicus; remark: listed apart in the source
Description: (§2) Concentration of compound to inhibit 50% of [3H]-5-HT neurotransmitter uptake in rat brain

[5] = species: Rattus norvegicus; test: cells; conditions: Brain, 3 h
Description: as §2

[6] = species: Rattus norvegicus; test: cells; conditions: Brain, 3 h; remark: listed apart in the source
Description: as §1

[7] = biological target: Dopamine receptor; test: Concentration of compound for 50% displacement of [3H]spiperone from Dopamine receptor in rat brain; assay type: tissue-based

Compound | IC50 [1] [nM] | IC50 [2] [nM] | IC50 [3] [nM] | IC50 [4] [nM] | IC50 [5] [nM] | IC50 [6] [nM] | IC50 [7] [nM]
CN1CCC2c3cccc4c3N(CC2C1)c1ccccc1CC4 (trans isomer) | 1760 | 449 | 1250 | 14200 |  |  | 
CN(C)CCCN1c2ccccc2CCc2ccccc21 [IMIPRAMINE] |  | 269 |  |  | 384 | 169 | 645
CN1CCC2c3cccc4c3N(CC2C1)c1ccccc1CC4 (stereo in doubt) | 445 | 2240 | 3540 |  | 19600 |  | 
